Data published in US20230181512A1, “METHODS FOR THE TREATMENT OF INFANTILE SPASMS USING MEDIUM CHAIN TRIGLYCERIDES” (Cerecin Inc., priority 2020, published 2023).
“Also recorded” adds a separate entry of the source. Read-outs that look alike come from different tables or passages of the source.

Assays:
[1] = test system: rat triple hit model of IS; assay: Rat triple hit model of IS (DOX, LPS, PCPA): spasm frequency; format: in vivo, Sprague Dawley rats; details: for spasms/hr / spasms/hour: P5-P7, scored on P7; for spasms/hour: vehicle/milk only mean 4.5 (SD 2.3)
Excerpt: Various animal models of IS have been created as tools to test efficacy of various interventions. One such example is a rat triple hit model developed by Scantlebury and co-authors. This model was developed “based on evidence that structural or functional abnormalities in cortical or subcortical structures may be necessary to produce IS.” [11]. The model uses three lesions to induce infantile spasms. The lesions include doxorubicin (DOX), lipopolysaccharide (LPS) and p-chlorophenylalanine (PCPA). DOX is an inhibitor of topo isomerase 2 that results in diffuse brain damage involving the forebrain and brainstem when injected intraventricularly. LPS can stimulate the release of inflammatory cytokines in various cell types, leading to an acute inflammatory response. Intracerebral injection of LPS in rat pups activates inflammatory cascades resulting in hypomyelination, white matter rarefaction and necrosis. PCPA depletes serotonin by inhibiting the enzyme tryptophan hydroxylase.
In accordance with embodiments of the disclosure, tricaprilin was tested for its ability to reduce spasm frequency in this triple hit model. These studies were done using timed pregnant Sprague Dawley rats. Animals were maintained in a 12 hr light/dark cycle and had free access to food and water. The day of birth was considered as P0. Animal care and use conformed to institutional policy and guidelines of the American Association for the Accreditation of Laboratory Animal Care. All procedures and experiments were performed in accordance with the National Institute of Health Guide for the Care and Use of Laboratory Animals.
At postnatal day (P) 3 DOX (5 μg/2.5 μl) and LPS (3 μg/1.5 μl) were given intracerebrally and at P5 PCPA is given intraperitoneally (i.p.) (200 mg/kg). Intracerebral infusions of DOX and LPS were done stereotaxically under isoflurane anesthesia. Pups were positioned in a stereotaxic frame for neonatal rat surgery (Benchmark Angle One, MyNeurolab.com, St Louis Mo.). DOX was injected into the right lateral ventricle followed by LPS into the right parietal cortex. Pups were individually placed in beakers warmed in a water bath and filled with bedding (31-33° C.) and fed via a cheek cannula. Spasms begin at day P4 and continue to P13.
Tricaprilin was administered either by oral gavage (administered twice a day), or steadily in milk via the cheek cannula, from P5-P7. […] For gavage, tricaprilin was administered at 5 ml/kg/day and 10 ml/kg/day. When mixed with milk, tricaprilin was administered at 5, 10 and 30 ml/kg/day. Each group comprised 5 animals. Spasms were recorded and scored on P7, urine ketones collected on P7 at 6 and 12 hours after gavage and same timepoints for milk fed pups. The behaviors of the pups were monitored using a video camera for 2 hours twice daily from P4 (first post-operative day) until P20.
The frequency of spasms varied by concentration of tricaprilin used. […] With reference to FIG. 2B, when tricaprilin was mixed with milk at 5 ml/kg/day spasms/hr were 3.1 (SD 1.7, pvalue=0.300), at 10 ml/kg/day 3.0 (SD 0.8, pvalue=0.139), and at 30 ml/kg/day 1.75 (SD 1.7, pvalue 0.079).

[2] = cited from earlier work; for adverse events (AEs) associated with treatment: IS treatment, refs [32], [1]
[3] = test system: Infantile spasms (IS) patients; details: cited from earlier work

Molecule: CCCCCCCC(=O)OCC(COC(=O)CCCCCCC)OC(=O)CCCCCCC [tricaprilin]
- spasms/hr ([1]; mixed with milk 5 ml/kg/day, SD 1.7, pvalue=0.300): 3.1 spasms/hr
- spasms/hr ([1]; mixed with milk 10 ml/kg/day, SD 0.8, pvalue=0.139): 3.0 spasms/hr
- spasms/hr ([1]; mixed with milk 30 ml/kg/day, SD 1.7, pvalue 0.079): 1.75 spasms/hr
- spasms/hour ([1]; oral gavage 5 ml/kg/day, SD 1.6, pvalue 0.155): 2.3 spasms/hour
- spasms/hour ([1]; oral gavage 10 ml/kg, SD 0.9, pvalue=0.036): 1.4 spasms/hour
- effect on spasms compared to vehicle (in words) ([1]; oral gavage and feeding in milk): reduction in spasms/hr; also recorded: reduces spasms

Molecule: C=CC(N)CCC(=O)O (stereo not drawn) [VGB, Vigabatrin]
- adverse events (AEs) associated with treatment [2]: sedation, irritability, insomnia and hypotonia
- visual field defects ([2]; persist even with discontinuation of the drug, ref [1]): serious visual field defects that are permanent
- % of patient spasms stopped ([3]; 18-36 mg/kg/day, N 75, ref [18]): 11%
- % of patient spasms stopped ([3]; 100-148 mg/kg/day, N 67, ref [18]): 36%
- % of patient spasms stopped ([3]; 100-150 mg/kg/day, N 52, ref [17]): 54%

Molecule: Adrenocorticotropic hormone (SYSMEHFRWGKPVGKKRRPVKVYPNGAEDESAEAFPLEF; Corticotropin; UniProt P01189 138-176, looked up) [ACTH, first line hormonal therapy for IS]
- adverse events (AEs) associated with treatment [2]: hypertension, immune suppression, infection, electrolyte imbalances, GI disturbances, ocular opacities, hypertrophic cardiomyopathy, cerebral atrophy and growth impairment
- % of patient spasms stopped ([3]; 20-20 IU/day, N 24, ref [16]): 58%
- % of patient spasms stopped ([3]; 150 IU/m2/day divided B.I.D., N 15, ref [13]): 93%
- % of patient spasms stopped ([3]; 150 IU/m2/day, N 26, ref Hrachovy, 1994 #681}): 50%
- subjects responded with both clinical cessation of spasms and abolition of hypsarrhythmia on EEG ([3]; high-dose natural ACTH 150 IU/m2/day given twice daily, 2 weeks then taper, Baram et al. [13]): 87%

Molecule: C[C@]12C=CC(=O)C=C1CC[C@@H]1[C@@H]2C(=O)C[C@@]2(C)[C@H]1CC[C@]2(O)C(=O)CO [Prednisone]
- % of patient spasms stopped ([3]; 2 mg/kg/day, N 12, ref [19]): 33%

Molecule: C[C@]12C=CC(=O)C=C1CC[C@@H]1[C@@H]2[C@@H](O)C[C@@]2(C)[C@H]1CC[C@]2(O)C(=O)CO [Prednisolone]
- % of patient spasms stopped ([3]; 40-60 mg/day, N 30, ref [17]): 70%
